#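 Where inhibition never reached the appropriate level, the endpoint shown equals the highest concentration tested. Otherwise, values were interpolated linearly from a five-concentration, 48-hour dose response in 96-well plates. Here, GI50 denotes the concentration required for 50% inhibition of growth. TGI marks complete inhibition of growth.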
# Columns and labels:
# Assay in all cases: inhibition of tumour cell growth, NCI panel, 48 h
# A498 renal = system: A498 renal
# ACHN renal = system: ACHN renal
# COLO 205 colon = system: COLO 205 colon
# HL-60(TB) leukemia = system: HL-60(TB) leukemia
# HS 578T breast = system: HS 578T breast
# OVCAR-5 ovarian = system: OVCAR-5 ovarian
# OVCAR-8 ovarian = system: OVCAR-8 ovarian
# SF-268 CNS = system: SF-268 CNS
# SK-OV-3 ovarian = system: SK-OV-3 ovarian
# NCI-H522 lung = system: NCI-H522 lung
smiles,measurement,setting,value
Cc1c(C(=O)OCc2ccccc2)[n+](=O)c2cc(Cl)c(Cl)cc2n1[O-],TGI,A498 renal,35.6 µM
same,TGI,ACHN renal,53.7 µM
same,TGI,COLO 205 colon,32.2 µM
same,TGI,HL-60(TB) leukemia,27.3 µM
same,TGI,HS 578T breast,47.4 µM
same,TGI,OVCAR-5 ovarian,39.2 µM
same,TGI,OVCAR-8 ovarian,46.5 µM
same,TGI,SF-268 CNS,39.8 µM
same,TGI,SK-OV-3 ovarian,60 µM
O=c1oc(C(C(F)(F)F)C(F)(F)F)nc2ccccc12,TGI,A498 renal,> 100 µM
same,TGI,ACHN renal,> 100 µM
same,TGI,COLO 205 colon,> 100 µM
same,TGI,HL-60(TB) leukemia,> 100 µM
same,TGI,NCI-H522 lung,> 100 µM
same,TGI,OVCAR-5 ovarian,> 100 µM
same,TGI,OVCAR-8 ovarian,> 100 µM
same,TGI,SK-OV-3 ovarian,> 100 µM
CC(C)(C)CC(C)(C)c1cc(O)c(O)c(CN2CCCCC2)c1,TGI,A498 renal,27.3 µM
same,TGI,ACHN renal,25.6 µM
same,TGI,COLO 205 colon,25.3 µM
same,TGI,HL-60(TB) leukemia,31.6 µM
same,TGI,HS 578T breast,41.3 µM
same,TGI,NCI-H522 lung,23.5 µM
same,TGI,OVCAR-5 ovarian,31.8 µM
same,TGI,OVCAR-8 ovarian,33.1 µM
same,TGI,SF-268 CNS,25.3 µM
same,TGI,SK-OV-3 ovarian,34.8 µM
CC(C)/C(Cl)=N\OC(NC(=O)P(=O)(c1ccccc1)c1ccccc1)(C(F)(F)F)C(F)(F)F,TGI,A498 renal,28.6 µM
same,TGI,ACHN renal,16.3 µM
same,TGI,COLO 205 colon,26.5 µM
same,TGI,HL-60(TB) leukemia,30.9 µM
same,TGI,HS 578T breast,> 100 µM
same,TGI,OVCAR-5 ovarian,48.3 µM
same,TGI,OVCAR-8 ovarian,32 µM
same,TGI,SF-268 CNS,31.9 µM
same,TGI,SK-OV-3 ovarian,> 100 µM
CN(Cc1cnc2nc(N)nc(N)c2n1)c1ccc(C(=O)NC(CO)CCCO)cc1 (stereo not given),TGI,A498 renal,> 100 µM
same,TGI,ACHN renal,> 100 µM
same,TGI,COLO 205 colon,> 100 µM
same,TGI,HL-60(TB) leukemia,> 100 µM
same,TGI,HS 578T breast,> 100 µM
same,TGI,OVCAR-5 ovarian,> 100 µM
same,TGI,OVCAR-8 ovarian,> 100 µM
same,TGI,SF-268 CNS,> 100 µM
same,TGI,SK-OV-3 ovarian,> 100 µM
C=CCC1C(O[Si](C)(C)C(C)(C)C)C(CO[Si](C)(C)C(C)(C)C)OC1n1ccc(=O)[nH]c1=O (stereo not given),TGI,A498 renal,3.68 µM
same,TGI,COLO 205 colon,3.13 µM
same,TGI,OVCAR-5 ovarian,2.57 µM
same,TGI,OVCAR-8 ovarian,3.41 µM
CC1(C)CC(=O)C2(CC(CSc3ccccc3)C(CS(=O)(=O)c3ccccc3)C2)C(=O)C1 (stereo not given),TGI,A498 renal,> 100 µM
same,TGI,ACHN renal,> 100 µM
same,TGI,COLO 205 colon,> 100 µM
same,TGI,HS 578T breast,> 100 µM
same,TGI,NCI-H522 lung,> 100 µM
same,TGI,OVCAR-5 ovarian,> 100 µM
same,TGI,OVCAR-8 ovarian,> 100 µM
same,TGI,SF-268 CNS,> 100 µM
same,TGI,SK-OV-3 ovarian,> 100 µM
COc1ccc(Nc2ccc3ccccc3c2-c2c(O)ccc3ccccc23)cc1,TGI,ACHN renal,29.8 µM
same,TGI,COLO 205 colon,47 µM
same,TGI,HL-60(TB) leukemia,55.2 µM
same,TGI,NCI-H522 lung,32.8 µM
same,TGI,OVCAR-5 ovarian,31.8 µM
same,TGI,OVCAR-8 ovarian,33.6 µM
same,TGI,SF-268 CNS,35.9 µM
COc1ccc(C(=O)CC(c2ccccc2)[C@H]2C(c3ccc(OC)cc3)=Nc3c(nc(SC)n(C)c3=O)NC2c2ccccc2)cc1 (stereo not given in full),TGI,A498 renal,> 100 µM
same,TGI,COLO 205 colon,> 100 µM
same,TGI,HS 578T breast,> 100 µM
same,TGI,NCI-H522 lung,> 100 µM
same,TGI,OVCAR-5 ovarian,> 100 µM
same,TGI,SF-268 CNS,> 100 µM
same,TGI,SK-OV-3 ovarian,> 100 µM
CCOP(=O)(OCC)/C(=C/c1cccs1)CC(C)=O,TGI,A498 renal,> 100 µM
same,TGI,ACHN renal,> 100 µM
same,TGI,COLO 205 colon,> 100 µM
same,TGI,HS 578T breast,> 100 µM
same,TGI,OVCAR-5 ovarian,> 100 µM
same,TGI,OVCAR-8 ovarian,> 100 µM
same,TGI,SF-268 CNS,> 100 µM
same,TGI,SK-OV-3 ovarian,> 100 µM
O=C(O)c1ccccc1N=Cc1ccc(N(CCCl)CCCl)cc1,TGI,A498 renal,> 57.7 µM
same,TGI,COLO 205 colon,> 100 µM
same,TGI,HL-60(TB) leukemia,> 100 µM
same,TGI,NCI-H522 lung,> 100 µM
same,TGI,OVCAR-5 ovarian,> 100 µM
same,TGI,OVCAR-8 ovarian,> 100 µM
same,TGI,SF-268 CNS,> 100 µM
same,TGI,SK-OV-3 ovarian,> 100 µM
CCOC(=O)Nn1c(CC#N)nnc1Cc1ccccc1,TGI,ACHN renal,> 100 µM
same,TGI,HL-60(TB) leukemia,> 100 µM
same,TGI,HS 578T breast,> 100 µM
same,TGI,NCI-H522 lung,> 100 µM
same,TGI,OVCAR-5 ovarian,> 100 µM
same,TGI,OVCAR-8 ovarian,> 100 µM
same,TGI,SF-268 CNS,> 100 µM
O=C1NC(=O)C(C(CC(=O)c2ccc(Cl)cc2)c2ccc(Cl)cc2)C(=O)N1 (stereo not given),TGI,A498 renal,> 100 µM
same,TGI,ACHN renal,> 100 µM
same,TGI,HL-60(TB) leukemia,> 100 µM
same,TGI,HS 578T breast,> 100 µM
same,TGI,NCI-H522 lung,> 100 µM
same,TGI,OVCAR-5 ovarian,> 100 µM
same,TGI,OVCAR-8 ovarian,> 100 µM
same,TGI,SF-268 CNS,> 100 µM
C/C(=N\Nc1nc2ccccc2n1C)c1cc2ccccc2cn1,TGI,A498 renal,1.47 µM
same,TGI,ACHN renal,11.8 µM
same,TGI,HL-60(TB) leukemia,1.41 µM
same,TGI,HS 578T breast,15.1 µM
same,TGI,NCI-H522 lung,4.67 µM
same,TGI,OVCAR-5 ovarian,21.6 µM
same,TGI,OVCAR-8 ovarian,4.24 µM
same,TGI,SF-268 CNS,11.7 µM
same,TGI,SK-OV-3 ovarian,0.761 µM
C=CC[n+]1c2ccccc2n2cc([N+](=O)[O-])ccc21,TGI,A498 renal,55 µM
same,TGI,ACHN renal,> 100 µM
same,TGI,COLO 205 colon,26.2 µM
same,TGI,HL-60(TB) leukemia,50.3 µM
same,TGI,NCI-H522 lung,41 µM
same,TGI,OVCAR-5 ovarian,> 100 µM
same,TGI,OVCAR-8 ovarian,86.2 µM
same,TGI,SK-OV-3 ovarian,> 100 µM
Cc1nc(N)c(N2CCN(CN)CC2)c(=O)[nH]1,TGI,A498 renal,> 100 µM
same,TGI,ACHN renal,> 100 µM
same,TGI,COLO 205 colon,> 100 µM
same,TGI,HL-60(TB) leukemia,> 100 µM
same,TGI,HS 578T breast,> 100 µM
same,TGI,NCI-H522 lung,> 100 µM
same,TGI,OVCAR-5 ovarian,> 100 µM
same,TGI,OVCAR-8 ovarian,> 100 µM
same,TGI,SF-268 CNS,> 100 µM
CCOP(=O)(O)CN1CCNCCN(CP(=O)(O)OCC)CCNCC1,TGI,A498 renal,> 100 µM
same,TGI,ACHN renal,> 100 µM
same,TGI,COLO 205 colon,> 100 µM
same,TGI,HL-60(TB) leukemia,> 100 µM
same,TGI,HS 578T breast,> 100 µM
same,TGI,NCI-H522 lung,> 100 µM
same,TGI,OVCAR-5 ovarian,> 100 µM
same,TGI,OVCAR-8 ovarian,> 100 µM
same,TGI,SK-OV-3 ovarian,> 100 µM
C=CCP(=O)(CC=C)C(Cl)Cl,TGI,ACHN renal,> 100 µM
same,TGI,COLO 205 colon,> 100 µM
same,TGI,HL-60(TB) leukemia,> 100 µM
same,TGI,HS 578T breast,> 100 µM
same,TGI,NCI-H522 lung,> 100 µM
same,TGI,OVCAR-5 ovarian,> 100 µM
same,TGI,OVCAR-8 ovarian,> 100 µM
same,TGI,SK-OV-3 ovarian,> 100 µM
COc1cccc(C=O)c1[O-].[O]=[U](=[O])([OH2+])[OH2+],TGI,A498 renal,> 100 µM
same,TGI,ACHN renal,79.8 µM
same,TGI,COLO 205 colon,> 100 µM
same,TGI,NCI-H522 lung,> 100 µM
same,TGI,OVCAR-5 ovarian,> 100 µM
same,TGI,OVCAR-8 ovarian,56.2 µM
same,TGI,SF-268 CNS,> 100 µM
same,TGI,SK-OV-3 ovarian,63.6 µM
C#CCn1c(=O)c(C)cn(/C(=C\C(=O)OCC)C(=O)OCC)c1=O,TGI,A498 renal,40.8 µM
same,TGI,ACHN renal,3.22 µM
same,GI50,COLO 205 colon,1.52 µM
same,TGI,COLO 205 colon,3.12 µM
same,TGI,HL-60(TB) leukemia,> 100 µM
same,TGI,HS 578T breast,62 µM
same,TGI,OVCAR-5 ovarian,23.9 µM
same,TGI,OVCAR-8 ovarian,13.2 µM
same,TGI,SF-268 CNS,35.7 µM
same,TGI,SK-OV-3 ovarian,> 56.4 µM
COc1cc(C2C(Cl)C(=O)N2c2c(C)n(C)n(-c3ccccc3)c2=O)ccc1O (stereo not given),TGI,ACHN renal,34.9 µM
same,TGI,COLO 205 colon,34.3 µM
same,TGI,HL-60(TB) leukemia,64.1 µM
same,TGI,NCI-H522 lung,31 µM
same,TGI,OVCAR-5 ovarian,42.7 µM
same,TGI,OVCAR-8 ovarian,43.9 µM
same,TGI,SF-268 CNS,75.5 µM
same,TGI,SK-OV-3 ovarian,80.2 µM
CN=C(/N=c1\ssc(=NC)n1C)N(C)C,TGI,A498 renal,> 100 µM
same,TGI,ACHN renal,> 100 µM
same,TGI,COLO 205 colon,> 100 µM
same,TGI,HL-60(TB) leukemia,> 100 µM
same,TGI,NCI-H522 lung,> 100 µM
same,TGI,OVCAR-5 ovarian,> 100 µM
same,TGI,OVCAR-8 ovarian,> 100 µM
same,TGI,SF-268 CNS,> 100 µM
same,TGI,SK-OV-3 ovarian,> 100 µM
COc1ccc(-c2oc3cc(O)cc(O)c3c(=O)c2OC)cc1,TGI,A498 renal,66.8 µM
same,TGI,ACHN renal,> 100 µM
same,TGI,COLO 205 colon,> 100 µM
same,TGI,HL-60(TB) leukemia,38.4 µM
same,TGI,NCI-H522 lung,9.7 µM
same,TGI,OVCAR-5 ovarian,> 100 µM
same,TGI,OVCAR-8 ovarian,> 100 µM
same,TGI,SF-268 CNS,78.2 µM
same,TGI,SK-OV-3 ovarian,> 100 µM

# From PubChem BioAssay (NCI)
